Values of other authors as cited in US20070203140A1, “N-hydroxyguanidines as modulators of indoleamine 2,3-dioxygenase” (priority 2006, published 2007).

Columns and labels:
LLC tumors = LLC tumors in C57B1/6 mice, versus placebo
P815 tumor = details: pre-immunized immune-competent mice

Question: For Cn1cc(C[C@H](N)C(=O)O)c2ccccc21 [Example 1-MT, 1-methyl-tryptophan], which formation of tumors (LLC tumors) is on record?
Answer: The formation of tumors was “markedly delayed”.

Question: And the growth of tumors (P815 tumor)?
Answer: The growth of tumors was “inhibited”.
